Source: patent US20110053777A1, “Resistance to Acetolactate Synthase-Inhibiting Herbicides” (priority 2006, published 2011)

How the values were obtained:
[1] = test system: C. tinctoria ALS allele with mutations at both Pro197 and Trp574; experiment: Herbicide resistance imparted by the double-mutant ALS allele; design: species or system Coreopsis tinctoria; conditions: for Pre-emergence and/or post-emergence resistance to herbicide: novel allele with two point mutations; for Resistance of the clone with mutations at both Pro197 and Trp574: resistant clone with both mutations
[2] = test system: seed from Chase (herbicide-resistant Coreopsis); experiment: Field planting sprayed with Oust, seed from Chase; type: in vivo, Coreopsis tinctoria
Excerpt: (§1) Seed were harvested from mature Coreopsis with a combine from plantings both inside and outside the herbicide treated areas at the Idlewild Research Station in Clinton, La. Seed were also harvested with a combine from the roadside area near Chase, La. Putative herbicide-resistant seed from the Chase location, and putative herbicide-sensitive seed from the Idlewild Research Station were separately cleaned and stored in a climate-controlled seed storage facility.
(§2) Seed samples from both seed sources were planted in March at the Idlewild Research Station using a small grain drill, at a 2 pound per acre seeding rate. Area one contained both control seed grown the previous season at the Idlewild Research Station, and seed obtained from the Chase, La. site. A second area was planted in March exclusively with seed from Chase, La. A third area was planted in April with seed from Chase, La.
(§3) A single application of Oust at 0.07 pounds ai/A was applied in mid-May to half of the first and third plantings and to all of the second planting.

susceptible Coreopsis = experiment: Field trial of ALS-inhibiting herbicides on F1 plants, commercial control seed; type: in vivo, Coreopsis tinctoria; conditions: Oust applied at 0.07 pounds ai/A, ratings taken at 23 and 49 days after application
Experimental: To confirm herbicide resistance, and to characterize herbicide resistance profiles, seeds from the roadside-harvested, putatively-resistant Coreopsis were harvested (F0) and planted in a field in a separate location from the original roadside stand. The resulting F0 plants were not subjected to herbicide treatment. F1 seeds were harvested from the F0 plants, and the F1 seeds were planted in a field in several blocks and replicates. The resulting F1 plants were treated with various AHAS-inhibiting herbicides.
Commercial Coreopsis tinctoria seed were obtained as controls from two commercial nurseries. The commercially-obtained seed and the experimental seed were planted with a small grain drill at a seeding rate of 2 pounds per acre. Three months later, herbicides were applied to the F1 plants at different rates in a randomized complete block design with three replications. The ALS-inhibiting herbicides used in this trial were sulfometuron methyl (trade name Oust™); imazapic (trade name Plateau™); sulfosulfuron, 1-(2-ethylsulfonylimidazo[1,2a]pyridin-3-ylsulfonyl)-3-(4,6-dimethoxypyrimidin-2-yl) urea (trade name Outrider™); and DPX 6447.
Percent injury ratings were taken at 23 and 49 days after herbicide application. All herbicide treatments injured the susceptible Coreopsis. […]

[3] = test system: ALS enzyme from the resistant C. tinctoria mutants; experiment: ALS enzyme assay, C. tinctoria mutant versus susceptible; type: biochemical
Excerpt: (§4) ALS enzyme Assay: An ALS enzyme assay was used to determine if resistance in the mutants was due to the ALS enzyme itself in the mutant plants. A modification was used of the colorimetric method of Singh B. K., Stidham M. A., and Shaner D. L. 1988. Assay of acetohydroxyacid synthase. Analytical Biochemistry 171:173-179. Rice plants were used as controls. Sulfometuron methyl (Oust), chlorsulfuron (Glean), and imazapyr (Arsenal) were used as ALS inhibitors. Briefly, 10 grams of young leaves pooled from either mutant plants or from susceptible plants were ground to a powder in liquid nitrogen, and mixed with 50 ml of extraction buffer containing 100 mM K2HPO4 (pH 7.5), 10 mM sodium pyruvate, 5 mM EDTA, 1 mM valine, 1 mM leucine, 10 mM cysteine, 0.1 mM flavin adenine dinucleotide, 5 mM MgCl2, 10% (v/v) glycerol, and 1% (w/v) polyvinylpyrrolidone. The homogenate was filtered through eight layers of cheesecloth and centrifuged at 25,000 g at 4° C. for 20 min. The supernatant was brought to 50% saturation with (NH4)2SO4 by adding an equal volume of 100% saturated extraction buffer, and was then allowed to stand for 20-30 min on ice. The resulting solution was centrifuged at 25,000 g at 4° C. for another 20 min. The pellet was dissolved in 10 ml resuspension buffer containing 100 mM K2HPO4 (pH7.5), 1 mM EDTA, 100 mM NaCl, and 10% (v/v) glycerol. Bradford Reagent (SIGMA, Saint Louis, Mo., USA) was used to determine the concentration of total protein in solution; and resuspension buffer was used to adjust the concentrations of total protein from wild- and mutant-type of C. tinctoria to the same level.
(§5) ALS activity was measured by mixing 1.5 ml of assay buffer, containing 100 mM K2HPO4 (pH 7.0), 10 mM MgCl2, 100 mM sodium pyruvate, 1 mM thiamine pyrophosphate, 0.1 mM flavin adenine dinucleotide, and 0.5 mL of the ALS extract, with varying amounts of herbicide (0.0.1, 1, 10, 100, 1000 μM). The mixture was then incubated at 37° C. for 1 h. […] The mixtures were then centrifuged at 12,000 g for 10 min, and absorbance was measured at 530 nm with a Spectrophotometer 690.

[4] = test system: susceptible transplants from Idlewild; experiment: Transplanting trial, susceptible transplants; type: in vivo, Coreopsis tinctoria; conditions: applied 2 weeks after transplant, ratings 2 and 4 weeks after application
Experimental: A transplanting trial was also conducted in May at the Idlewild Research Station. Five-inch diameter divots of plants were collected at both the Chase and Idlewild sites. Divots were transplanted to a location at Idlewild which had had no previous Coreopsis crop. Divots were transplanted in a paired arrangement on 36 inch centers. Oust, Plateau and Outrider were applied at various rates 2 weeks after transplant. The trial used a randomized complete block design with 3 replications. Visual injury and height ratings were taken 2 and 4 weeks after application. Injury to the susceptible transplants from Idlewild ranged from a high of 100% at all rates of Oust to a low of 60% with the 0.06 pound ai/A rate of Outrider. No injury was observed, nor any height differences noted in any application made to the resistant transplants from the Chase site.

[5] = target: T1, AHAS enzyme from CL161 rice (Oryza sativa subsp. japonica, UniProt Q6K2E8, S627N); experiment: ALS enzyme assay, CL161 rice versus CCDR rice; type: biochemical
T1 construct: from tissue; host or cells: leaves of CL161 rice plants; crude ammonium sulfate fraction
Excerpt: as §4, §5

[6] = test system: Idlewild-grown control seed (herbicide-sensitive Coreopsis); experiment: Field planting sprayed with Oust, Idlewild-grown control seed; type: in vivo, Coreopsis tinctoria; conditions: single application of Oust at 0.07 pounds ai/A
Excerpt: as §1, §2, §3

[7] = test system: resistant C. tinctoria plants; experiment: Greenhouse herbicide spray test, resistant plants; type: in vivo
Experimental: (§6) Response of resistant and susceptible C. tinctoria to imidazolinone and sulfonylurea herbicides treatments: Both wild-type and mutant strains of C. tinctoria were planted in the greenhouse with ˜100 seeds per pot. Individual plants were transplanted to separate pots after seven weeks. The greenhouse regime comprised natural light with temperatures of 25 to 30° C. during the day and 15 to 20° C. at night. The experimental setup was a completely randomized design with five treatments and six plants (replications) per treatment for both wild-type and mutant strains. The five treatments were Arsenal (imazapyr), Oust (sulfometuron methyl), Arsenal+Oust sequential, Oust+Arsenal sequential, and control (no herbicide). […] to individual mutant or susceptible, […], with 12 plants per each herbicide treatment for both wild-type and mutants. Ten days later, the same rate of Oust was sprayed on six plants that had previously been treated with Arsenal, and the same rate of Arsenal was sprayed on six plants that had previously been treated with Oust, for both wild-type and mutants. […]
Plant height in resistant plants was not affected when sprayed with […] or imazapyr, as compared to the unsprayed resistant controls. […] It appeared that the imazapyr+sulfosulfuron methyl treatment stimulated growth in the resistant plants, an observation that will be confirmed in follow-up experiments. Various strains or genotypes of C. tinctoria were used in this study, so a direct evaluation of herbicide on plant height should be viewed with caution. […] Herbicide injury ratings for the resistant plants ranged from 0.5 to 1.2 (Table 2).

[8] = test system: susceptible C. tinctoria plants; experiment: Greenhouse herbicide spray test, susceptible plants; type: in vivo; conditions: SM 8 oz. a.i./A, IM 2 oz. a.i./A
Experimental: as §6
The range of herbicide injury ratings for the sprayed susceptible plants was 3.3 to 4.8, with essentially no injury for the unsprayed controls.

[9] = SM 8 oz. a.i./A, IM 2 oz. a.i./A, sequential sprays March 3 and March 13
[10] = sequential sprays March 3 and March 13, 25 days after treatment

T1 sequence (Q6K2E8 44-644 S627N): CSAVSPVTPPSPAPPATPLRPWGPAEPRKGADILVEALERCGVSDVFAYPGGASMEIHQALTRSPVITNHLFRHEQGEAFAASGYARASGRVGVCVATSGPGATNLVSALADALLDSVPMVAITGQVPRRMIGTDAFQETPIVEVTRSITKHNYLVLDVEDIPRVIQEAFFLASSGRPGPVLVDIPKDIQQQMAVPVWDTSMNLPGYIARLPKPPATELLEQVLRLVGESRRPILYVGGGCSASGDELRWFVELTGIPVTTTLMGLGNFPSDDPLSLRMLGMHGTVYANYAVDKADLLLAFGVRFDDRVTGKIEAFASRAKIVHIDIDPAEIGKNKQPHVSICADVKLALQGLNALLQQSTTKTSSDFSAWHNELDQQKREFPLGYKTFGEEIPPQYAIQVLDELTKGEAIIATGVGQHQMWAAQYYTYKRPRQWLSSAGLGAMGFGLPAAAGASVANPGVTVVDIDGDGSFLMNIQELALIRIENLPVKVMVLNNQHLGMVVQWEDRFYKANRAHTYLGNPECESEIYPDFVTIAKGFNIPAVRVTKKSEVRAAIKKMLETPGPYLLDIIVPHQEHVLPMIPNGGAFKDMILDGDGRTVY

Compound: COc1nc(C)nc(NC(=O)NS(=O)(=O)c2ccccc2OCCCl)n1 [triasulfuron, 3-(6-methoxy-4-methyl-1,3,5-triazin-2-yl)-1-[2-(2-chloroethoxy)-phenylsulfonyl]-urea]
- Pre-emergence and/or post-emergence resistance to herbicide [1]: Resistance has been demonstrated

Compound: COC(=O)c1ccccc1S(=O)(=O)NC(=O)Nc1nc(C)nc(OC)n1 [metsulfuron methyl, methyl 2-[[[[(4-methoxy-6-methyl-1,3,5-triazin-2-yl)amino]carbonyl]amino]sulfonyl]benzoate]
- Pre-emergence and/or post-emergence resistance to herbicide [1]: Resistance has been demonstrated

Compound: COC(=O)c1ccccc1S(=O)(=O)NC(=O)Nc1nc(C)cc(C)n1 [Oust, 2-[[[[(4,6-dimethyl-2-pyrimidinyl)amino]carbonyl]amino]sulfonyl]benzoic acid methyl ester]
- effect of second application ([2]; second application of Oust at 0.14 pounds ai/A): no noticeable effect
- injury rate ([2]; single application of Oust at 0.07 pounds ai/A): less than 1%
- Percent injury rating (susceptible Coreopsis): 98%
- Tolerance of mutant ALS compared to susceptible control (in words) ([3]; Oust, FIG. 1e): more tolerant than the susceptible control for Oust herbicide (sulfometuron methyl) (FIG. 1e), although the difference was not significant
- Visual injury ([4]; all rates of Oust): 100%
- Tolerance of CL161 rice compared to susceptible variety CCDR (in words) ([5]; 100 μM of Oust, FIG. 1f): significantly greater tolerance
- Pre-emergence and/or post-emergence resistance to herbicide [1]: Resistance has been demonstrated
- Resistance of the clone with mutations at both Pro197 and Trp574 [1]: strong resistance
- injury rate [6]: 98%

Compound: Cc1cnc(C2=NC(C)(C(C)C)C(=O)N2)c(C(=O)O)c1 (racemic) [imazapic, (±)-2-[4,5-dihydro-4-methyl-4-(1-methyl-ethyl)-5-oxo-1H-imidazol-2-yl]-5-methyl-3-pyridinecarboxylic acid]
- Pre-emergence and/or post-emergence resistance to herbicide [1]: Resistance has been demonstrated

Compound: COc1cc(OC)nc(NC(=O)NS(=O)(=O)c2ncccc2C(F)(F)F)n1 [flazasulfuron]
- Pre-emergence and/or post-emergence resistance to herbicide [1]: Resistance has been demonstrated

Compound: CCS(=O)(=O)c1nc2ccccn2c1S(=O)(=O)NC(=O)Nc1nc(OC)cc(OC)n1 [Outrider, 1-(2-ethylsulfonylimidazo[1,2a]pyridin-3-ylsulfonyl)-3-(4,6-dimethoxypyrimidin-2-yl) urea]
- Visual injury ([4]; 0.06 pound ai/A rate of Outrider): 60%
- Pre-emergence and/or post-emergence resistance to herbicide [1]: Resistance has been demonstrated

Compound: CC(C)C1(C)N=C(c2ncccc2C(=O)O)NC1=O (centres unmarked) [Arsenal, 2-[4,5-dihydro-4-methyl-4-(1-methylethyl)-5-oxo-1H-imidazol-2-yl]-3-pyridinecarboxylic acid]
- Tolerance of mutant ALS enzyme compared to susceptible variety ([3]; Arsenal at 10 to 100 μM, FIG. 1a): ~2.5 fold
- Plant height compared to the unsprayed resistant controls (in words) [7]: not affected
- % height reduction compared to no spray control [7, 9]: 0%
- Plant height (cm) [7, 9]: 9.2 cm
- Injury rating ([7]; scale 0 = no injury, 10 = dead plant, SM 8 oz. a.i./A, IM 2 oz. a.i./A): 0.7
- Tolerance of CL161 rice enzyme compared to control ([5]; Arsenal at 10 μM, FIG. 1b): < 2 fold
- Pre-emergence and/or post-emergence resistance to herbicide [1]: Resistance has been demonstrated
- Resistance of the clone with mutations at both Pro197 and Trp574 [1]: strong resistance
- % height reduction compared to no spray control [8, 10]: 80%
- Plant height (cm) [8, 10]: 11.0 cm
- Injury rating ([8]; scale 0 = no injury, 10 = dead plant): 3.5

Compound: COc1nc(C)nc(NC(=O)NS(=O)(=O)c2ccccc2Cl)n1 [Glean, 2-chloro-N-[(4-methoxy-6-methyl-1,3,5-triazin-2-yl)aminocarbonyl]benzenesulfonamide]
- Tolerance of mutant AHAS compared to susceptible control ([3]; Glean at 1 to 10 μM, FIG. 1c): ~4.5 fold
- Tolerance of CL161 rice AHAS compared to control ([5]; Glean at 1 μM, FIG. 1d): < 1 fold
- Resistance of the clone with mutations at both Pro197 and Trp574 [1]: strong resistance
